Target: T1, NAD(+) hydrolase SARM1 (Homo sapiens, UniProt Q6SZW1)
T1 sequence (Q6SZW1 whole entry): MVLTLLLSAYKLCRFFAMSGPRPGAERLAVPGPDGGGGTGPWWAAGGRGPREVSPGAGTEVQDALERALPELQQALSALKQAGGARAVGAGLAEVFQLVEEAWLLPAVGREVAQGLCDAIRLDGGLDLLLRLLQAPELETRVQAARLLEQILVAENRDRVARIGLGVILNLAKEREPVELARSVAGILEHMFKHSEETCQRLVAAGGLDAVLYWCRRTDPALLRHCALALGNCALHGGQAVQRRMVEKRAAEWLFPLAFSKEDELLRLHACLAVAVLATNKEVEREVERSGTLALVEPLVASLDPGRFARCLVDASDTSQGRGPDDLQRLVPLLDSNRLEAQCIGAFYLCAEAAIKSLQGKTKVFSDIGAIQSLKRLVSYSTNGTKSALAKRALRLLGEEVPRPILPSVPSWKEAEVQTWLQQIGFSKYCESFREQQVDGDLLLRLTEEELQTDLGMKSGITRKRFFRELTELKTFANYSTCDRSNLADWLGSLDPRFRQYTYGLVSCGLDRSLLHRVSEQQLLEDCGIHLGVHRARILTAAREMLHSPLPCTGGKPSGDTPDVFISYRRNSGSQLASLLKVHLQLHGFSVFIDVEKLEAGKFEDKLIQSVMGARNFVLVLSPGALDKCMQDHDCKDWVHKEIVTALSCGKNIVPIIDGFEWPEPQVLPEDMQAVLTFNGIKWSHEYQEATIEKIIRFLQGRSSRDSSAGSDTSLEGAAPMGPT
Assay: ARM-SAM-TIR IC50 Assay
Experimental: The enzymatic assay was performed in a 384-well polypropylene plate in Dulbecco's PBS buffer in a final assay volume of 20 μL. ARM-SAM-TIR lysate with a final concentration of 5 μg/mL was pre-incubated with the respective compound at 1% DMSO final assay concentration over 2 h at room temperature. The reaction was initiated by addition of 5 μM final assay concentration of NAD+ as substrate. After a 2 hr room temperature incubation, the reaction was terminated with 40 μL of stop solution of 7.5% trichloroactetic acid in acetonitrile. The NAD+ and ADPR concentrations were analyzed by a RapidFire High Throughput Mass Spectrometry System (Agilent Technologies, Santa Clara, Calif.) using an API4000 triple quadrupole mass spectrometer (AB Sciex Framingham, Mass.).

SMILES: Cc1c(-c2ccncc2)n[nH]c1NC(=O)COc1ccc(Cl)c(F)c1 [US12331033, Example 291]
- IC50: < 5 µM
